# Measured values: US11603356B2, “Amorphous form of a complement component C5a receptor” (CHEMOCENTRYX, INC., priority 2019, dated 2023)
# Tests used:
# [1] = Stability storage test (25° C./60% RH, 12 months; HPLC, KF, XRPD); type: physicochemical; settings: for Specified Individual Related Substances (HPLC): RRT1.05
# Procedure: A sample of amorphous form of Compound 1 was tested by different analytical methods and the data was reported in the “Time Zero” column (Table 3). These analytical methods included: HPLC and Karl Fisher (KF). The sample was placed in double Low-Density Polyethylene (LDPE) bags, sealed with a cable tie, then placed in a High-Density Polyethylene (HDPE) bottle with foil and heat-induction sealed, with 0.5 g desiccant between LDPE bags. The HDPE bottle was stored inside an environment chamber at 25° C. and 60% relative humidity (RH). After 12 months inside the environment chamber, the sample was tested again by the same analytical methods.
# [2] = Kinetic solubility in 0.1 N HCl, FaSSGF and FeSSIF at 37° C.; type: physicochemical
# Procedure: The in vitro solubility of a crystalline form of Compound 1 and the amorphous form of Compound 1 was tested.
# The amorphous form was prepared as described in Example 2, Method 1, and the crystalline form of Compound 1 was prepared as described in Example 1.
# Crystalline and amorphous forms of Compound 1 were saturated in three different media: 0.1 N HCl solution, Fasted State Simulated Gastric Fluid (FaSSGF), and Fed State Simulated Intestinal Fluid (FeSSIF). The samples were shaken inside a 37° C. water bath at 40 rpm. The concentration of Compound 1 dissolved in these samples was measured by HPLC at four different time points (0.5, 1, 2 and 4 hours).
# [3] = Dynamic vapor sorption (DVS) of the amorphous form; type: physicochemical
# Procedure: To evaluate the hygroscopicity and physical stability of the amorphous form of Compound 1 under different humidity, dynamic vapor sorption (DVS) data was collected at 25° C. after the sample was pre-equilibrated at 0% RH to remove unbounded water. DVS was measured using a VTI SGA-100 Vapor Sorption Analyzer. Sorption and desorption data was collected over a range from 5% to 95% RH at 10% RH increments under a nitrogen purge. The equilibrium criterion used for analysis was less than 0.0100% weight change in 5 minutes with a maximum equilibrium time of 3 hours.
# [4] = In vivo rat PK study, oral aqueous liquid suspension formulation
# Procedure: An in vivo rat PK study was conducted to compare the PK profile and bioavailability of crystalline form against amorphous form of Compound 1 in an aqueous liquid suspension formulation, which contained 0.5% w/v Hydroxypropyl Cellulose (Klucel GF grade) and 0.5% w/v Poloxamer F-68 (BASF Kolliphor P188). Each animal was orally administrated 10 mg/kg of Compound 1 at 5 mL/kg dosing volume (a dosing concentration of 2 mg/mL).
# [5] = Solubility in IV formulation saline/PEG400/Tween80; type: physicochemical
# Procedure: Intravenous (IV) formulations of a crystalline form of Compound 1 and the amorphous form of Compound 1 were prepared by contacting the amorphous of crystalline Compound 1 with saline/PEG400/Tween80 (88:10:1). The crystalline form of Compound 1 was prepared as described in Example 1, the amorphous form of Compound was prepared as described in Example 2, Method 1.
# [6] = oral 10 mg/kg, suspension in 0.5% w/v Klucel GF and 0.5% w/v Poloxamer F-68, 10 mg/kg
structure (smiles),measurement,setting,value
"Cc1ccc(NC(=O)[C@H]2CCCN(C(=O)c3c(C)cccc3F)[C@H]2c2ccc(NC3CCCC3)cc2)cc1C(F)(F)F [Amorphous Compound 1, (2R,3S)-2-(4-(cyclopentylamino)phenyl)-1-(2-fluoro-6-methylbenzoyl)-N-(4-methyl-3-(trifluoromethyl)phenyl)piperidine-3-carboxamide]",Unspecified Individual Related Substances (HPLC),"[1]; RRT0.45, Time Zero",RRT0.45: <0.05%
same,Unspecified Individual Related Substances (HPLC),"[1]; RRT0.50, Time Zero",RRT0.50: <0.05%
same,Unspecified Individual Related Substances (HPLC),"[1]; RRT0.90, Time 12 months (25° C./60% RH)",RRT0.90: 0.20%
same,Unspecified Individual Related Substances (HPLC),"[1]; RRT0.90, Time Zero",RRT0.90: 0.05%
same,Unspecified Individual Related Substances (HPLC),"[1]; RRT0.96, Time 12 months (25° C./60% RH)",RRT0.96: <0.05%
same,Unspecified Individual Related Substances (HPLC),"[1]; RRT0.96, Time Zero",RRT0.96: <0.05%
same,Specified Individual Related Substances (HPLC),[1]; Time 12 months (25° C./60% RH),RRT1.05: <0.05%
same,Specified Individual Related Substances (HPLC),[1]; Time Zero,RRT1.05: 0.08%
same,Unspecified Individual Related Substances (HPLC),"[1]; RRT1.06, Time 12 months (25° C./60% RH)",RRT1.06: 0.07%
same,Unspecified Individual Related Substances (HPLC),"[1]; RRT1.14, Time 12 months (25° C./60% RH)",RRT1.14: <0.05%
same,Unspecified Individual Related Substances (HPLC),"[1]; RRT1.14, Time Zero",RRT1.14: 0.05%
same,Unspecified Individual Related Substances (HPLC),"[1]; RRT1.16, Time Zero",RRT1.16: <0.05%
same,Unspecified Individual Related Substances (HPLC),"[1]; RRT1.20, Time Zero",RRT1.20: 0.22%
same,Unspecified Individual Related Substances (HPLC),"[1]; RRT1.21, Time Zero",RRT1.21: 0.06%
same,Unspecified Individual Related Substances (HPLC),"[1]; RRT1.22, Time Zero",RRT1.22: <0.05%
same,Appearance,[1]; Time 12 months (25° C./60% RH),Off-white Powder
same,Potency (HPLC),[1]; Time 12 months (25° C./60% RH),98.9% w/w
same,Total Impurities and Related Substances (HPLC),[1]; Time 12 months (25° C./60% RH),0.20%
same,Water Content (KF),[1]; Time 12 months (25° C./60% RH),0.31%
same,enantiomeric impurity,[1]; Time 12 months (25° C./60% RH),0.0%
same,Appearance,[1]; Time Zero,Off-white Powder
same,Potency (HPLC),[1]; Time Zero,99.5% w/w
same,Total Impurities and Related Substances (HPLC),[1]; Time Zero,0.38%
same,Water Content (KF),[1]; Time Zero,0.33%
same,enantiomeric impurity,[1]; Time Zero,0.0%
same,CCX168 Solubility at 37° C.,"[2]; 0.1N HCl (pH 1.06), 0.5 Hr.",47.5 µg/mL
same,CCX168 Solubility at 37° C.,"[2]; 0.1N HCl (pH 1.06), 1 Hr.",54.0 µg/mL
same,CCX168 Solubility at 37° C.,"[2]; 0.1N HCl (pH 1.06), 2 Hr.",74.7 µg/mL
same,CCX168 Solubility at 37° C.,"[2]; 0.1N HCl (pH 1.06), 4 Hr.",61.7 µg/mL
same,CCX168 Solubility at 37° C.,"[2]; FaSSGF (pH 1.64), 0.5 Hr.",9.3 µg/mL
same,CCX168 Solubility at 37° C.,"[2]; FaSSGF (pH 1.64), 1 Hr.",7.8 µg/mL
same,CCX168 Solubility at 37° C.,"[2]; FaSSGF (pH 1.64), 2 Hr.",BQL (BQL = Less than 3.1 μg/mL)
same,CCX168 Solubility at 37° C.,"[2]; FaSSGF (pH 1.64), 4 Hr.",ND (ND = Not Detected)
same,CCX168 Solubility at 37° C.,"[2]; FeSSIF (pH 4.90), 0.5 Hr.",6.0 µg/mL
same,CCX168 Solubility at 37° C.,"[2]; FeSSIF (pH 4.90), 1 Hr.",9.9 µg/mL
same,CCX168 Solubility at 37° C.,"[2]; FeSSIF (pH 4.90), 2 Hr.",9.0 µg/mL
same,CCX168 Solubility at 37° C.,"[2]; FeSSIF (pH 4.90), 4 Hr.",7.4 µg/mL
same,hygroscopicity,"[3]; DVS, 25° C.",low hygroscopicity
same,hysteresis between adsorption and desorption (DVS plot),"[3]; DVS, 25° C.",no hysteresis
same,form change by XRPD before and after DVS test,"[3]; XRPD, FIG. 7",no form change
same,weight gain after dynamic vapor sorption cycle,[3]; about 0% RH to about 65% RH at 25° C.,about 0.31%
same,AUC(0-inf),"[4]; in vivo, oral 10 mg/kg, suspension in 0.5% w/v Klucel GF and 0.5% w/v Poloxamer F-68",2470 ng·h/mL
same,AUC0-t,"[4]; in vivo, oral 10 mg/kg, suspension in 0.5% w/v Klucel GF and 0.5% w/v Poloxamer F-68, read-out: AUC0-t",2410 ng·h/mL
same,Cmax,"[4]; in vivo, oral 10 mg/kg, suspension in 0.5% w/v Klucel GF and 0.5% w/v Poloxamer F-68, read-out: Cmax",388 ng/mL
same,Cmax and AUC compared to the formulation containing crystalline form,[4]; oral 10 mg/kg suspension,significant increase in Cmax and AUC
same,MRT,[4]; [6],5.6 h
same,Tmax,[4]; [6],2 h
same,t1/2,[4]; [6],4.7 h
same,aqueous solubility in an IV formulation compared to the crystalline form,[5]; particularly at early time points,improved the aqueous solubility
same,solubility at 8 h,"[5]; saline/PEG400/Tween80 (88:10:1) IV formulation, aqueous with cosolvent or surfactant or cyclodextrin, thermodynamic from solid, saline/PEG400/Tween80 (88:10:1), 8 Hr.",35.6 µg/mL
same,solubility at 24 h,"[5]; saline/PEG400/Tween80 (88:10:1) IV formulation, aqueous with cosolvent or surfactant or cyclodextrin, thermodynamic from solid, saline/PEG400/Tween80 (88:10:1), 24 Hr.",28.9 µg/mL
same,solubility at 48 h,"[5]; saline/PEG400/Tween80 (88:10:1) IV formulation, aqueous with cosolvent or surfactant or cyclodextrin, thermodynamic from solid, saline/PEG400/Tween80 (88:10:1), 48 Hr.",26.9 µg/mL
same,solubility at 96 h,"[5]; saline/PEG400/Tween80 (88:10:1) IV formulation, aqueous with cosolvent or surfactant or cyclodextrin, thermodynamic from solid, saline/PEG400/Tween80 (88:10:1), 96 Hr.",26.3 µg/mL
same,Solubility in IV Formulation,"[5]; saline/PEG400/Tween80 (88:10:1), 0.5 Hr.",140.0 µg/mL
same,Solubility in IV Formulation,"[5]; saline/PEG400/Tween80 (88:10:1), 1 Hr.",150.6 µg/mL
same,Solubility in IV Formulation,"[5]; saline/PEG400/Tween80 (88:10:1), 2 Hr.",96.1 µg/mL
same,Solubility in IV Formulation,"[5]; saline/PEG400/Tween80 (88:10:1), 4 Hr.",52.8 µg/mL
